In one data set the test system is plasma protein. The settings on record: cited from earlier work; for Protein binding: ref Drugbank database (go.drugbank.com).
The next data set can be described thus: in vivo. The settings on record: female, MMTV-PyMT (FVB/NJ background), mouse; for Kp: AUCtissue/AUCplasma.
The conditions of data set [1]: ref Drugbank database (go.drugbank.com); cited from earlier work.
The conditions of data set [2]: for AUC in tumor tissues, fold higher than in the normal fatpad: i.v. injection.
A further data set has as its system albumin. The settings on record: cited from earlier work.

As to `CC/C(=C(\c1ccc(O)cc1)c1ccc(OCCN(C)C)cc1)c1ccccc1` [Afimoxifene, afimoxifene], in the data set with plasma protein, the Protein binding is 99%. Besides, in “in vivo” (po, 5 mg/kg), the AUC was determined as 114 ng·h/mL and the bioavailability was 32.4%. The molecule also showed a concentration ratio (Kp) in “in vivo” (po, Kpbone, bone) of 5. For the same molecule, the Kp in the data set “in vivo” (po, Kpfatpad, fatpad) was 10.9. For the same molecule, the Kp in the data set “in vivo” (po, Kptumor, tumor) turned out to be 25.3. Also, in data set [1], the LogP is 5.44 and the LogS is given as −5.1. The AUCtumor (oral 5 mg/kg, tumor) amounted to 2886.5. Besides, the “tissue selectivity compared to tamoxifen and toremifene, in words” value in data set [2] (i.v. 2.5 mg/kg) is recorded as “higher lung but lower pancreas selectivity”. Further, in data set [2] (i.v. 2.5 mg/kg, AUC ratio), the “exposure difference in the kidney, afimoxifene vs droloxifene” value was 4.8 fold and the “exposure difference in the liver, afimoxifene vs droloxifene” value is 6.8 fold. In addition, the “AUC in tumor tissues, fold higher than in the normal fatpad” value in data set [2] was determined as 2.2 fold.

As to `CC/C(=C(/c1ccc(OCCN(C)C)cc1)c1cccc(O)c1)c1ccccc1` [Droloxifene], in the data set “in vivo” (po, 5 mg/kg), the AUC came to 127 ng·h/mL and the bioavailability was 45.3%. The molecule further gave a Kp in “in vivo” (po, Kpbone, bone) of 7.7. Moreover, the Kp in “in vivo” (po, Kpfatpad, fatpad) amounted to 9.5. For the same molecule, the Kp in the data set “in vivo” (po, Kptumor, tumor) was 25.6. In data set [1], the lipophilicity (LogP) was 5.43, the LogS is recorded as −5.1 and the pKa is given as 8.49. For the same molecule, the AUCtumor (oral 5 mg/kg, tumor) came out at 3238.8. Further, in data set [2] (i.v. 2.5 mg/kg), the “tissue selectivity compared to tamoxifen and toremifene, in words” value is “higher lung but lower pancreas selectivity”. Further, the “AUC in tumor tissues, fold higher than in the normal fatpad” value in data set [2] is 3.1 fold.

As for `Cc1cc(-c2ccc(/N=N/c3ccc4c(S(=O)(=O)O)cc(S(=O)(=O)O)c(N)c4c3O)c(C)c2)ccc1/N=N/c1ccc2c(S(=O)(=O)O)cc(S(=O)(=O)O)c(N)c2c1O` [Evan blue], the “plasma protein binding level” value in the data set on plasma protein is given as 68%.

`Oc1ccc2c(c1)CC[C@H](c1ccccc1)[C@@H]2c1ccc(OCCN2CCCC2)cc1` [Lasofoxifene, lasofoxifene]: the Protein binding in the data set with plasma protein is listed as 99%. Moreover, in “in vivo”, the bioavailability stood at 26.9%. This molecule also showed an AUC in the data set “in vivo” (po, 5 mg/kg) of 75.4 ng·h/mL. In “in vivo” (po, Kpbone, bone), this molecule displayed a Kp of 3.5. In “in vivo” (po, Kpfatpad, fatpad), this molecule yielded a Kp of 5.7. The Kp in the data set “in vivo” (po, Kptumor, tumor) came to 13.2. Besides, in data set [1], the LogP is reported as 6.36, the LogS was −6 and the pKa is 8.98. Under “oral 5 mg/kg, tumor”, this molecule came in with an AUCtumor of 996.

In turn, `COc1ccc2c(c1)CCC(c1ccccc1)=C2c1ccc(OCCN2CCCC2)cc1` [Nafoxidine, nafoxidine] came in with a bioavailability in “in vivo” of 83.4%. Also, the AUC in “in vivo” (po, 5 mg/kg) came out at 969 ng·h/mL. For the same molecule, the Kp in “in vivo” (po, Kpbone, bone) was found to be 1.4. The partition ratio (Kp) in “in vivo” (po, Kpfatpad, fatpad) came out at 4.5. Moreover, the Kp in “in vivo” (po, Kptumor, tumor) amounted to 6.3. Further, in data set [1], the LogP is 6.36, the LogS is given as −5.91 and the pKa is 8.95. For the setting “oral 5 mg/kg, tumor”, this molecule displayed an AUCtumor of 6118.7. The “oral bioavailability, fold higher than lasofoxifene” value (vs lasofoxifene) was found to be 3 fold. Besides, the “tissue selectivity compared to lasofoxifene, in words” value in data set [2] (after i.v and p.o. administration) is “higher selectivity in stomach, liver, fat, fatpad, spleen, kidney, but lower selectivity in heart, tumor and pancreas”. In data set [2] (i.v. 2.5 mg/kg), the “exposure in the fat, fold higher than lasofoxifene” value was 8 fold and the “exposure in the spleen, fold higher than lasofoxifene” value stood at 6 fold.

In turn, `O=C(c1ccc(OCCN2CCCCC2)cc1)c1c(-c2ccc(O)cc2)sc2cc(O)ccc12` [Raloxifene, raloxifene] yielded an AUC in “in vivo” (po, 5 mg/kg) of 114 ng·h/mL. Also, the AUCtumor (oral 5 mg/kg, tumor) amounted to 929.4.

For the molecule `CC/C(=C(\c1ccccc1)c1ccc(OCCN(C)C)cc1)c1ccccc1` [Tamoxifen], the Protein binding with plasma protein is reported as 98%. In “in vivo” (po, 5 mg/kg), the AUC worked out at 102 ng·h/mL and the bioavailability is 39.4%. In addition, the AUCtumor (oral 5 mg/kg, tumor) is 3621.3. Also, the “exposure difference in the fat, intestine and skin, tamoxifen vs toremifene” value in data set [2] (i.v. 2.5 mg/kg, AUC ratio) came to 2 fold.

Consider `CN(C)CCOc1ccc(/C(=C(/CCCl)c2ccccc2)c2ccccc2)cc1` [Toremifene, toremifene], for which, in the data set with plasma protein, the Protein binding is 92%. In “in vivo” (po, 5 mg/kg), this molecule returned an AUC of 64.9 ng·h/mL and a bioavailability of 18.5%. For the same molecule, the Kp in the data set “in vivo” (po, Kpbone, bone) came out at 5.1. In the data set “in vivo” (po, Kpfatpad, fatpad), this molecule displayed a Kp of 20.9. This molecule showed a concentration ratio (Kp) in “in vivo” (po, Kptumor, tumor) of 21.5. For the same molecule, in data set [1], the LogP is 5.65, the LogS is −6 and the pKa is listed as 8.76. Further, where the note is “oral 5 mg/kg, tumor”, the AUCtumor amounted to 1393. In addition, the “tumor drug concentration, fold higher than raloxifene” value (oral 5 mg/kg, tumor, vs raloxifene) amounted to 1.5 fold. In addition, the “drug exposure in the lung, fold increase to tamoxifen (20 mg QD)” value (toremifene 60 mg QD (3-fold AUC) vs tamoxifen 20 mg QD) was found to be 2 fold.

Turning to `COc1cccc2c1C(=O)c1c(O)c3c(c(O)c1C2=O)C[C@@](O)(C(=O)CO)C[C@@H]3O[C@H]1C[C@H](N)[C@H](O)[C@H](C)O1` [doxorubicin], the “binding affinity to albumin” value in the data set with albumin was 7500 mol/L.

The values are drawn from paper PMC9136610 (Acta Pharmaceutica Sinica. B, 2022).
